Legend:
Details in all cases: 100 uM
NIH-3T3 = assay: Cell uptake assay, NIH-3T3 cells; assay type: cell-based, mouse
Protocol: (§1) • 1.1.1 15 mL of cell culture medium was placed into a T225 flask. • 1.1.2 The flask was placed in a humidified 37° C., 5% CO2 incubator for 15 minutes to allow medium to equilibrate to the proper pH and temperature. • 1.1.3 The vial was removed from liquid nitrogen and thawed rapidly by placing at 37° C. in a water bath with gentle agitation for 1-2 minutes and then decontaminated by wiping with 70% ethanol before opening in a Class II biological safety cabinet. • 1.1.4 The vial contents were transferred dropwise into 10 mL of cell culture medium in a sterile 15 mL conical tube. • 1.1.5 The cells were centrifuged at 1,300 rpm for 5 minutes. • 1.1.6 The supernatant was aspirated and re-suspended the cells and transferred the cells into T225 flask containing cell culture medium.
(§2) • 1.2.1 Culture medium were renewed every 2-3 days. • 1.2.2 Keep the flask in a humidified 37° C., 5% CO2 incubator
(§3) • Cells were harvested and diluted in culture medium to the designated concentration. Then the cells were cultured in T25 flasks, one T25 flask for one sample. 2.2 Formulation of test compounds • 2.2.1 L-Boronophenylalanine (L-BPA, 4-boron-L-phenylalanine, Purity: 95%, Chemical formula: C9H12BNO4, MW: 209.01, CAS: 76410-58-7) and fructose were dissolved in PBS at a molar ratio of 1:5, and then a 1.27 M ratio of 1 N NaOH is added. The mixture was stirred until L-BPA is completely dissolved, and the pH value was titrated to 7.2-7.4 with 1 N HC1. • 2.2.2 For test compounds other than BPA, stock solutions were prepared of each compound in DMSO or fructose formulation at a concentration of 20 mM (such that final % DMSO in the cellular assay medium=0.5%) 2.3 Compound treatment • 2.3.1 The cells were seeded overnight (12-18 hours) to allow the cells to adhere well. • 2.3.2 The stock solution of each compound was added to each T25 flask such that the final concentration for each compound is 100 uM (0.1 mM). • 2.3.3 The flasks were placed in a 37° C., 5% CO2 incubator for 1 hour, 4 hours and 24 hours. • 2.3.4 After treatment for 1 hour, 4 hour, and 24 hours, the cells were collected by using 0.25% Trypsin with 0.53 mM EDTA. • 2.3.5 Centrifuged at 1,300 rpm for 5 min to collect cell pellets.

B16F10 = assay: Cell uptake assay, B16F10 cells; assay type: cell-based, mouse
Protocol: as §1, §2, §3

SAS (head & neck cancer) = assay: Cell uptake assay, SAS cells; assay type: cell-based, human
Protocol: as §1, §2, §3

U87-MG (glioblastoma) = assay: Cell uptake assay, U87-MG cells; assay type: cell-based, human
Protocol: as §1, §2, §3

Structure (SMILES)	Cell uptake, Mean, NIH-3T3 (NIH-3T3; 4 hours) [ng/10^6 cell]	Cell uptake, Mean, B16F10 (B16F10; 1 hour) [ng/10^6 cell]	Cell uptake, Mean, B16F10 (B16F10; 4 hours) [ng/10^6 cell]	Cell uptake, Mean, B16F10 (B16F10; 24 hours) [ng/10^6 cell]	Cell uptake, Mean, SAS (SAS (head & neck cancer); 1 hour) [ng/10^6 cell]	Cell uptake, Mean, SAS (SAS (head & neck cancer); 4 hours) [ng/10^6 cell]	Cell uptake, Mean, SAS (SAS (head & neck cancer); 24 hours) [ng/10^6 cell]	Cell uptake, Mean, NIH-3T3 (NIH-3T3; 1 hour) [ng/10^6 cell]	Cell uptake, Mean, NIH-3T3 (NIH-3T3; 24 hours) [ng/10^6 cell]	Cell uptake, Mean, U87-MG (U87-MG (glioblastoma); 1 hour) [ng/10^6 cell]	Cell uptake, Mean, U87-MG (U87-MG (glioblastoma); 4 hours) [ng/10^6 cell]	Cell uptake, Mean, U87-MG (U87-MG (glioblastoma); 24 hours) [ng/10^6 cell]
N[C@@H](Cc1cccc(C2(B(O)O)CC2)c1)C(=O)O [compound 14, (2S)-2-amino-3-{3-[1-(dihydroxyboranyl)cyclopropyl]phenyl}propanoic acid]	444											
N[C@@H](Cc1ccc(F)c(OCB(O)O)c1)C(=O)O [compound 11, (2S)-2-amino-3-{3-[(dihydroxyboranyl)methoxy]-4-fluorophenyl}propanoic acid]	92.8	50.6	121	202	529	454	999	32.4	122	113	322	309
N[C@@H](Cc1ccc(OCB(O)O)cc1F)C(=O)O [compound 2, (S)-2-amino-3-(4-(boronomethoxy)-2-fluorophenyl)propanoic acid]		151	333	881	1125	1590	1595		205	123		626
N[C@@H](Cc1ccc(OCCB(O)O)cc1F)C(=O)O [compound 6, (2S)-2-amino-3-{4-[2-(dihydroxyboranyl)ethoxy]-2-fluorophenyl}propanoic acid]	23.2		92.3		152	106	46.0	53.4		160	137	
N[C@@H](Cc1cccc(CCB(O)O)c1)C(=O)O [compound 5, (S)-2-amino-3-(3-(2-boronoethyl)phenyl)propanoic acid]	77.2		157	262		225	214	171				
N[C@@H](Cc1cccc(OCB(O)O)c1)C(=O)O [compound 1, (S)-2-amino-3-(3-(boronomethoxy)phenyl)propanoic acid]	194	112	232	517		755	828	127	133	227	233	336
N[C@@H](Cc1ccc(OCCB(O)O)cc1)C(=O)O [compound 3, (2S)-2-amino-3-{4-[2-(dihydroxyboranyl)ethoxy]phenyl}propanoic acid]	138	145	222	117	534	499		132		197	211	183
NC(Cc1ccc(OCB(O)O)cc1)C(=O)O (stereo not shown) [compound 4, 2-amino-3-{4-[(dihydroxyboranyl)methoxy]phenyl}propanoic acid]	58.6	46.1	95.6	101	445	495	997	27.1	66.6	42.8	113	191
N[C@@H](Cc1cc(F)cc(OCB(O)O)c1)C(=O)O [compound 13, (2S)-2-amino-3-[3-[(dihydroxyboranyl)methoxy]-5-fluorophenyl]propanoic acid]	222	180	310	304	903	1012	1077	183	168	521	828	735
NC(Cc1ccc(CCB(O)O)cc1F)C(=O)O (single isomer, unassigned) [compound 9, (R*)-2-amino-3-(4-(2-boronoethyl)-2-fluorophenyl)propanoic acid]	43.0		66.7	119	129	103	211	34.4	37.2	90.1		74.6
N[C@@H](Cc1ccc(OCB(O)O)c(F)c1)C(=O)O [compound 10, (2S)-2-amino-3-{4-[(dihydroxyboranyl)methoxy]-3-fluorophenyl}propanoic acid]	204		442	814	1285	1850		81.9		295	673	681
